Read-outs that look alike come from different tables or passages of the source. Blank lines part the entries; values can stand above or below the compound they belong to.
Legend:
[1] = molecular target: T1, human β-amyloid containing plaques (Homo sapiens, UniProt P05067); assay: Determination of in vivo brain distribution (fluorescence of brain sections)
T1 construct: from tissue; host or cells: brain of transgenic (Tg) mice carrying the human β-APP gene
Procedure: Transgenic mice, designated “Tg”, were obtained. The transgenic mice carry the human gene for β-APP, a gene associated with β-amyloid deposition in the brain. The mice were treated with.the quinolinehydrazone compound, 4-methyl-7-methoxy-2-(4-quinolylmethylhydrazino)quinoline. Dosing was administered either intravenously or orally. The intravenous dose was administered as a single injection (50 μmol/kg). Orally-treated animals received a single dose (400 μmol/kg) via oral gavage, or were dosed twice-a-day for 10 days (400 μmol/kg/dose/day).
Age-matched normal mice served as a negative control, i.e. no plaque formation in the animals was indicated. The control mice were treated in the same manner as the transgenic mice, but with placebo.
In addition, a group of age-matched Tg mice were treated with the carrier vehicle only.
All animals were sacrificed beginning 1, 3 and 10 h after the final dose. Fresh brains of the animals were removed, bisected, and positioned in […] (OCT). The brains were immersed into 2-methylbutane, pre-cooled to […] with liquid nitrogen. The brains were cut into 20 μm thick sections at a temperature of −20° C. Brain sections were collected onto poly-L-lysine-coated glass microscopic slide and treated with (1 drop) of 75%, by volume (v/v), glycerin in […](PBS). […]
The section adjacent to each compound-treated section of the brain was stained with thioflavin S (Sigma Chemicals, Milwaukee, Wis., U.S.A.). Sections stained with thioflavin S served as a positive control for identifying plaque. The distribution of compound-associated fluorescence was compared with the distribution of thioflavin S-stained section in order to confirm whether the compound bound plaque.
All sections were examined 1 h later to assess artifactual drug diffusion within thawed sections over time.

[2] = Dose-dependent pharmacokinetics: plasma and brain Cmax after oral dosing; format: in vivo; conditions: normal mice, 400 to 3,200 μmol/kg
Procedure: Dose-proportionality characteristics were assessed by measuring the maximum concentration (Cmax) for plasma and brain concentrations after oral dosing of normal mice. […] Plasma and brain concentrations were measured by HPLC at 0.5 to 24 hours.

[3] = In vivo determination of plasma and brain exposure (AUC) after oral dosing; conditions: normal mice; for Kp: brain/plasma
Procedure: Plasma and brain exposure were assessed by measuring area under the curve (AUC) after oral dosing of normal mice.
The brain to plasma ratios were calculated and reported below.
The terminal half-life of compound in the brain was measured to determine the dosing frequency for 10-day tolerance studies. For the three highest doses, brain terminal half-life ranged from 5-7 h.

[4] = molecular target: T2, amyloid plaque in brains of Tg mice (Homo sapiens, UniProt P05067); assay: Postmortem staining of amyloid plaque in brain sections
T2 construct: from tissue; host or cells: frozen, methanol-fixed brain sections of 12-14 month-old Tg mice
T2 sequence (P05067 672-713 limits assumed): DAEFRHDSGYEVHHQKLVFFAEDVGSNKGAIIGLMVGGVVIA
Procedure: Brains from 12-14 month-old Tg mice were frozen and sectioned at −20° C. Each section was fixed in ice cold methanol (Aldrich Chemical Co., Milwaukee, Wis.) for 10 minutes, rinsed in buffer and incubated in 4-methyl-7-methoxy-2-(4-quinolylmethylenehydrazino)quinoline for 90 minutes at room temperature. […] Fluorescence intensity in Tg mouse amyloid decreased with drug concentration. […] The […] mouse brains were confirmed to be plaque-free.

Neuronal cells = assay: In vitro antioxidant effect, neuronal cytoprotection model; format: cell-based; conditions: 1, 3, 10, 30 and 100 μM, with and without ferrous ammonium sulfate, 3 hours, LC/MS
Procedure: The 4-methyl-7-methoxy-2-(4-quinolylmethylene-hydrazino)quinoline was dissolved in 100×stock of aqueous Locke's buffer to obtain concentrations of 1, 3, 10, 30, and 100 μM solution. Neuronal cells were incubated in each compound solution with and without ferrous ammonium sulfate (200 μm) for 3 hours. High concentration supernatant was obtained from each sample. The samples were analyzed under liquid chromatography/mass spectrometry (LC/MS).

[5] = system: primary neuronal model of FAS-induced lipid peroxidation toxicity; assay: In vitro antioxidant effect, ferrous ammonium sulfate (FAS)-induced oxidative toxicity model; format: cell-based
Procedure: The 4-methyl-7-methoxy-2-(4-quinolylmethylene-hydrazino)quinoline was tested in a primary neuronal model of FAS-induced lipid peroxidation toxicity. The compound was treated in two manners. In one manner, the compound was solubilized as 100×stock in 100% dimethyl sulfoxide (DMSO) to afford panel A. In another manner, the compound was solubilized in aqueous Locke's buffer to give panel B.

[6] = system: amyloid-like proteins with a beta-pleated sheet conformation; conditions: in vitro; cited from earlier work
[7] = 30 and 100 μM, 1% DMSO experiments (panel A)

T1 sequence (P05067 672-713 limits assumed): as above

- plaque burden shown in brain sections compared with thioflavin S stained sections ([1]; Tg mice receiving the compound): marked plaque burden
- drug-related fluorescence in brain sections in areas of plaque formation ([1]; Tg mice, i.v. 50 μmol/kg or oral 400 μmol/kg, λex 365 nm, λem 400 nm): intense drug-related fluorescence
- brain penetration ([1]; Tg mice, i.v. or oral dosing): brain penetrable
- Cmax for brain, dose proportionality [2]: increases proportionally
- Cmax for plasma, dose proportionality [2]: increases proportionally
- Kp ([3]; mouse, oral, dose 51 μmole/kg, read-out: B/P Ratio AUC): 5.3
- Kp ([3]; mouse, oral, dose 208 μmole/kg, read-out: B/P Ratio AUC): 3.2
- Kp ([3]; mouse, oral, dose 421 μmole/kg, read-out: B/P Ratio AUC): 2.5
- Kp ([3]; mouse, oral, dose 831 μmole/kg, read-out: B/P Ratio AUC): 5.7
- Kp ([3]; mouse, oral, dose 1472 μmole/kg, read-out: B/P Ratio AUC): 5.7
- Kp ([3]; mouse, oral, dose 3024 μmole/kg, read-out: B/P Ratio AUC): 7.3
- Kp ([3]; mouse, oral, over the dose range tested, read-out: brain levels relative to plasma levels, average): 5
- half-life ([3]; mouse, brain, oral, three highest doses, read-out: brain terminal half-life): 5 to 7 h
- plasma exposure, saturation ([3]; oral, 3,024 μmol/kg): evidence of saturation
- brain exposure, dose dependence ([3]; oral, 421 to 1,472 μmol/kg): increased more rapidly
- plasma exposure, dose proportionality ([3]; oral, 421 to 1,472 μmol/kg): increased proportionally
- localization of compound fluorescence, confirmed by thioflavin S staining of adjacent sections ([4]; Tg mouse brain sections): does localize in amyloid plaques
- staining in brains of transgene-free mice ([4]; brain sections of transgene-free mice): not in brains of transgene-free mice
SMILES: COc1ccc2c(C)cc(NN=Cc3ccnc4ccccc34)nc2c1 [4-methyl-7-methoxy-2-(4-quinolylmethylenehydrazino)quinoline]
- binding to plaques in vivo ([1]; Tg mice, i.v. or oral dosing): preferentially binds to human β-amyloid containing plaques
- penetration to the brain tissue ([3]; oral): good penetration of the compound to the brain tissue
- antioxidant effect (Neuronal cells): demonstrated antioxidant properties
- cell morphology, brightfield photographs ([5]; 10 μM + FAS cells versus control cells): no different than cells treated with no drug and no FAS
- neuronal protection against FAS ([5]; 10 μM compound, 200 μM FAS, 3 hours, 14C-AIB uptake or LDH release): close to or complete neuronal protection
- drug toxicity to neuronal cells ([5]; 30 μM, aqueous preparation (panel B)): much less drug toxicity
- concentration range of concentration-dependent inhibition of FAS toxicity ([5]; 200 μM FAS, 3 hours, 14C-AIB uptake or LDH release): 0.3 to 10 µM
- drug toxicity to neuronal cells [5, 7]: inherent drug toxicity
- neuronal protection against FAS [5, 7]: no neuronal protection
- neuronal protection against FAS ([5]; 30 and 100 μM, aqueous preparation (panel B)): considerable neuronal protection

SMILES: Nc1c(N=Nc2ccc(-c3ccc(N=Nc4cc(S(=O)(=O)[O-])c5ccccc5c4N)cc3)cc2)cc(S(=O)(=O)[O-])c2ccccc12.[Na+].[Na+] [Congo red, 3,3′-[[1,1′-biphenyl]-4,4′-diylbis(azo)]bis[4-amino-1-naphthalenesulfonic acid] disodium salt]
- binding to amyloid-like proteins [6]: demonstrated binding

From patent US6589504B1, “Compounds and methods for diagnosing and treating amyloid-related conditions” (Pharmacia & Upjohn Company, priority 2000, dated 2003)
